Reference: PubChem BioAssay AID449762 (Southern Research Specialized Biocontainment Screening …, 2010)
Results filed as inconclusive are left out.

Test system: M. tuberculosis H37Rv growth inhibition, 7H9 media
Test: M. tuberculosis growth inhibition, HTS (AID 449762);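 note: bacterial growth assessed after seven days of incubation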
Conditions: for IC90: measured here: IC90 growth inhibition

| SMILES | IC50 | IC90 |
| --- | --- | --- |
| CCc1ccc2c(c1)/C(=C/C(=O)c1cccs1)C(=O)N2 | 1.06 µM | 3.19 µM |
| CCCC[C@@H](CN[C@H](C)CNC)NCC1CCC(C(C)(C)C)CC1 (stereo partly drawn) | 18 µM | 22.7 µM |
| CCCCn1nc(C(=O)Nc2ccccc2N2CCCC2)c2ccccc2c1=O | 11.8 µM | > 100 µM |
| Cc1nn(-c2ccccc2)c(N2CCCC2)c1/C=N/Nc1ccc(S(N)(=O)=O)cc1[N+](=O)[O-] | – | > 100 µM |
| CC1(C)Cc2c(cnn2-c2ccccc2)-c2c1c1ccccc1n2CC(O)CCl (stereo not drawn) | 88.2 µM | > 100 µM |
| Cc1ccccc1N/N=C/c1c(C)nc2ccccn12 | 47.1 µM | 53.7 µM |
| CSc1cccc(CNC(=O)C2CCC(=O)N(Cc3cccc(C(F)(F)F)c3)C2)c1 (stereo not drawn) | 26.6 µM | 30.6 µM |
| CC1CCCN(Cc2c(O)ccc3c(=O)c(-c4nc5ccccc5s4)c(N)oc23)C1 (stereo not drawn) | 9.7 µM | 12.7 µM |
| COc1ccc(N2CN=C3SCC(=O)N3C2)cc1 | – | > 100 µM |
| CCCOC(=O)/C(=C\c1ccc([N+](=O)[O-])o1)NC(=O)c1ccccc1 | 11 µM | 16.2 µM |
| CN(C)CCCNC(=O)c1ccc(-c2nc(-c3ccc(Cl)cc3)cs2)cc1 | 27.8 µM | 42.3 µM |
| CCCCCn1c(=O)c2ccccc2n2c(CCl)nnc12 | 0.48 µM | 2.21 µM |
| CCOC(=O)CN(C#N)c1nc(N(C)C)nc(N(C)C)n1 | 11.1 µM | 12.5 µM |
| Cc1ccc(/C=C2\SC(N3CCCC3)=NC2=O)cc1 | 0.38 µM | 1.68 µM |
| CCN1CCN(c2oc(COc3ccc(-c4ccccc4)cc3)nc2C#N)CC1 | 43.4 µM | 48.4 µM |
| CC1CC(C)(C)Nc2ccc(OC(=O)c3ccco3)cc21 (stereo not drawn) | 6.31 µM | 16.4 µM |
| CCCC12CN3CC(CCC)(CN(C1)C3c1ccccn1)C2=O (stereo not drawn) | 1.02 µM | 18.1 µM |
| COc1ccc(NC(C)C(=O)Nc2ccc(C(C)(C)C)cc2)cc1Cl (stereo not drawn) | 86.1 µM | > 100 µM |
| CC[N+](C)(CC)CCCCOc1ccc2c(c1)C(=O)c1cc(OCCCC[N+](C)(CC)CC)ccc1-2 | 0.96 µM | 1.52 µM |
| CC1(C)CC(=O)c2c(O)cc(OCc3ccc(Br)cc3)cc2O1 | 42 µM | 67.3 µM |
| O=[N+]([O-])c1cc(-c2ncccn2)c([N+](=O)[O-])s1 | 12.9 µM | 32.5 µM |
| Cc1ccnc(NC(=O)CCc2c[nH]c3ccccc23)c1 | 25.8 µM | 54.4 µM |
| COC(=O)CN1C(c2ccc(Cl)cc2)=Nc2ccc(Cl)cc2C1c1ccccc1 (stereo not drawn) | 11.8 µM | 13.7 µM |

| SMILES | IC50 | IC90 |
| --- | --- | --- |
| N#CCCN(C(=O)COC(=O)CCc1c[nH]c2ccccc12)c1ccc(F)cc1 | 30.7 µM | 70.8 µM |
| O=C(Cc1ccccc1)N/N=C/c1ccc2cccc(O)c2n1 | 7.67 µM | 12.3 µM |
| Cc1ccc(C(C)C)c(OCC(=O)OCc2c(C)noc2C)c1 | 2.86 µM | 3.29 µM |
| CCOc1ccc(NC(=O)CSc2nc(O)c(C)c(=O)n2-c2ccc(F)cc2)cc1 | 8.48 µM | 20.3 µM |
| Cc1nn(-c2ccccc2)c(Cl)c1C(=O)Nc1nnc(C2CCCCC2)s1 | 17.3 µM | > 50 µM |
| CCc1ccc(C2c3[nH]c4ccccc4c3CCN2C(=O)c2ccc(=O)n(C)n2)cc1 (stereo not drawn) | 49.6 µM | 74.3 µM |
| Cc1ccc(OCCN2CCN(c3ncnc4sc(C)c(C)c34)CC2)cc1 | 93.7 µM | > 100 µM |
| O=C(NCc1ccccn1)C(=O)Nc1nc(C23CC4CC(CC(C4)C2)C3)cs1 | 1.75 µM | 5.26 µM |
| O=C(NNC1CC(=O)N(c2ccc(Br)cc2)C1=O)c1ccccn1 (stereo not drawn) | 5.9 µM | 13.6 µM |
| CCOC(=O)CCCNC(=O)COC(=O)c1cc(Br)c(Br)s1 | 9.86 µM | > 100 µM |
| CN1C(=S)SC(N(O)C(=O)Nc2ccc(Cl)c(Cl)c2)C1(C)C (stereo not drawn) | 22.8 µM | 25.6 µM |
| CCOC(=O)c1ccc(NC(=S)NCCc2ccc(F)cc2)cc1 | 42.4 µM | > 100 µM |
| C(C#CCCCCCCCCC[n+]1ccccc1)#CCCCCCCCCC[n+]1ccccc1 | 2.8 µM | 4.43 µM |
| O=C(/C=C/c1c(F)cccc1Cl)c1ccc(F)cc1 | 23.8 µM | 34.4 µM |
| CN(Cc1ccco1)c1ncnc2ccc(-c3ccc4c(ccn4C)c3)cc12 | 16.9 µM | 44.9 µM |
| Cc1ccc(NC(=O)COC(=O)C(NS(=O)(=O)c2ccc(Cl)cc2)C(C)O)cc1C (stereo not drawn) | 2.17 µM | 8.97 µM |
| CCOC(=O)COc1ccc(C2CC(C)=NN2c2ccccc2)cc1 (stereo not drawn) | 2.81 µM | 17.7 µM |
| CCc1cc2c(=O)n(C(C)C(=O)OC3CCCCC3)cnc2s1 (stereo not drawn) | 17.8 µM | 27.8 µM |
| Cc1ccc(-n2nc(C)c3c(C)c(CCC(=O)Nc4ccc(CN5CCCC5)cc4)c(C)nc32)cc1 | 13.4 µM | 19.9 µM |
| O=c1cc(/C=C/c2ccccc2)oc2ccccc12 | 36.4 µM | > 100 µM |
| CN(C)c1ccc(-c2cc(O)c3ncccc3c2)cc1 | 2.55 µM | 4.17 µM |
| Clc1ccc(SCc2cc(N3CCOCC3)nc(-c3ccccn3)n2)cc1 | 0.92 µM | 6.27 µM |
